The values that follow come from PMC3037362, “Small Molecule Inhibitors of Staphylococcus aureus RnpA Alter Cellular mRNA Turnover, Exhibit Antimicrobial Activity, and Attenuate Pathogenesis” (PLoS Pathogens, 2011).

The structures appear in SMILES notation.

For orientation: IC50 means the concentration that inhibits the measured activity by half. High values mean weaker potency in that assay, low ones greater potency in that assay.

One experiment deals with T1, RNase III (Escherichia coli, UniProt P0A7Y0).
T1 construct: gene rnc
T1 sequence (P0A7Y0 whole entry): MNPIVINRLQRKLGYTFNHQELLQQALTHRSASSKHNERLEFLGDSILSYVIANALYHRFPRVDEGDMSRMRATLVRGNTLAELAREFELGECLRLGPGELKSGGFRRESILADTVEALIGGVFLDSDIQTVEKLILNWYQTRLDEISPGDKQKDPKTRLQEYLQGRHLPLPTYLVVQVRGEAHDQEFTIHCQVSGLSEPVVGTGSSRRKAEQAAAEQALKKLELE
The experiment can be described thus: in vitro ribonuclease activity of commercial enzyme (off-target counter-assay, data not shown). It counts as biochemical.

Experiment [1] has as its target T2, RnpA (protein component of ribonuclease P) (Staphylococcus aureus, UniProt P0A0H5).
T2 construct: recombinant full-length predicted open reading frame, N-terminal hexahistidine tag
As to the kind of experiment: RiboGreen fluorescence RNA degradation screen; agarose gel titration of spa mRNA degradation by purified RnpA. The format is biochemical. The text has this: RiboGreen fluorescence RNA degradation screen; agarose gel titration of spa mRNA degradation by purified RnpA on RnpA (protein component of ribonuclease P) | five of these molecules were bona-fide inhibitors of RnpA-mediated RNA degradation (Figure 3B). One of these compounds, RNPA1000

T2 sequence (P0A0H5 whole entry): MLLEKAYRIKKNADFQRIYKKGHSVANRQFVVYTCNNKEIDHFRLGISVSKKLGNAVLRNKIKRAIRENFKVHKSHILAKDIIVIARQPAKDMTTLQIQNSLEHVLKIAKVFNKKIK

In the case of `Cc1cc(/C=C(/C#N)C(=O)Nc2cccc(Br)c2)c(C)n1-c1ccc(C(=O)O)cc1` [RNPA1000], the figures for the half-maximal inhibitory concentration (IC50) (on RNase III; in experiment [1]) were 500 to 750 µM and 100 to 125 µM, respectively.
